# Laboratory results from ChEMBL document CHEMBL4765314, “Rational design and biological evaluation of gemfibrozil modified Xenopus GLP-1 derivatives as long-acting hypoglycemic agents” (Eur J Med Chem, 2020).
# The source made the active and inactive calls. The calls are words filed in the database; no cut-off is given here. Starred links: 1 amine or outer side, 2 acyl side, 3 side chain; linkers in the order of their positions; H or OH if unused. Residues, ends and D or L forms follow the SMILES beside them. Groups on a side chain read outwards from the residue. *: point of attachment. X5 = CC(=O)[C@H](CCCCNC(=O)CC[C@H](NC(=O)CCCCCCCCCCNC(=O)COC(=O)C(C)(C)CCCOc1cc(C)ccc1C)C(=O)O)N*; X4 = CC(=O)[C@H](CCCCNC(=O)CC[C@H](NC(=O)COC(=O)C(C)(C)CCCOc1cc(C)ccc1C)C(=O)O)N*; Glycoloyl(O-gemfibrozoyl) = Cc1ccc(C)c(OCCCC(C)(C)C(=O)OCC(=O)*)c1; γGlu = O=C(O)[C@H](CCC(=O)[*:2])N[*:1]; Aun = NCCCCCCCCCCC(=O)O; Ahx = NCCCCCC(=O)O
# Key:
# [1] = biological target: Glucagon-like peptide 1 receptor (Homo sapiens, UniProt P43220); experiment: Agonist activity at human GLP-1R expressed in HEK293 cells assessed as stimulation of cAMP accumulation incubated for 60 mins by HTRF assay; format: functional, cell-based
# Sequence of Glucagon-like peptide 1 receptor (P43220 whole entry): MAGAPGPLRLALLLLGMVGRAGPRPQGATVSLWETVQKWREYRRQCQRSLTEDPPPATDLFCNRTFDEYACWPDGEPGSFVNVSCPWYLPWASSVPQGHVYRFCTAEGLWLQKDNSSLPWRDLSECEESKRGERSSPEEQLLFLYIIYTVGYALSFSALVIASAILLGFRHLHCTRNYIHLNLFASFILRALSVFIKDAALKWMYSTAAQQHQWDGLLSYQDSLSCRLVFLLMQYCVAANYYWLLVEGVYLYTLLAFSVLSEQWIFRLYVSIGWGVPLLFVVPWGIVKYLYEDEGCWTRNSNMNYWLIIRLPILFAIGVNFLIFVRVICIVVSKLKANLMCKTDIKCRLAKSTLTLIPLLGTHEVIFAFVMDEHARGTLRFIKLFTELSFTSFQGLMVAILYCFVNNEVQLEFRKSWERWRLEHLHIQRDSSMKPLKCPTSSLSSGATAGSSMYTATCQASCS
# [2] = Stability in Sprague-Dawley rat plasma assessed as half life at 1000 ng/ml measured up to 48 hrs under shaking condition by LC-MS/MS analysis; format: ADME, cell-free
# [3] = test system: Mus musculus; experiment: Hypoglycemic activity in 12 hrs fasted ICR mouse assessed as reduction in blood glucose level at 25 nmol/kg, ip dosed 30 mins before glucose challenge measured up to 120 mins by OGTT method; format: functional, organism-based; settings: time 150.0 min
# [4] = Stability in Sprague-Dawley rat plasma at 1000 ng/ml measured up to 48 hrs under shaking condition by LC-MS/MS analysis; format: ADME, cell-free
Structure (SMILES),EC50 [1],half-life at 1000 ng/ml [2],Stabilty [4],Activity [3]
CC[C@H](C)[C@H](NC(=O)[C@H](CC(C)C)NC(=O)[C@H](Cc1c[nH]c2ccccc12)NC(=O)[C@H](CCC(=O)O)NC(=O)[C@@H](NC(=O)[C@H](Cc1ccccc1)NC(=O)[C@H](CCC(=O)O)NC(=O)[C@H](CCCCN)NC(=O)[C@H](C)NC(=O)[C@H](C)NC(=O)[C@H](CCC(=O)O)NC(=O)[C@H](CCC(=O)O)NC(=O)[C@H](CCC(=O)O)NC(=O)[C@H](CC(C)C)NC(=O)[C@H](Cc1ccc(O)cc1)NC(=O)[C@H](CCC(=O)O)NC(=O)[C@@H](NC(=O)[C@@H](NC(=O)[C@H](CC(=O)O)NC(=O)[C@H](CC(N)=O)NC(=O)[C@@H](NC(=O)[C@H](Cc1ccc(O)cc1)NC(=O)[C@@H](NC(=O)CNC(=O)[C@H](CCC(=O)O)NC(=O)CNC(=O)[C@@H](N)Cc1cnc[nH]1)[C@@H](C)O)[C@@H](C)O)C(C)C)[C@@H](C)O)[C@@H](C)CC)C(=O)N[C@@H](CCCCNC(=O)CC[C@H](NC(=O)CCCCCNC(=O)COC(=O)C(C)(C)CCCOc1cc(C)ccc1C)C(=O)O)C(=O)NCC(=O)N[C@@H](CCCCN)C(=O)O (H-HGEGTYTNDVTEYLEEEAAKEFIEWLIK([γGlu-Ahx-Glycoloyl(O-gemfibrozoyl)])GK-OH),0.21 nM,,Stable,Active
CC[C@H](C)[C@H](NC(=O)[C@H](CC(C)C)NC(=O)[C@H](Cc1c[nH]c2ccccc12)NC(=O)[C@H](CCC(=O)O)NC(=O)[C@@H](NC(=O)[C@H](Cc1ccccc1)NC(=O)[C@H](CCC(=O)O)NC(=O)[C@H](CCCCN)NC(=O)[C@H](C)NC(=O)[C@H](C)NC(=O)[C@H](CCC(=O)O)NC(=O)[C@H](CCC(=O)O)NC(=O)[C@H](CCC(=O)O)NC(=O)[C@H](CC(C)C)NC(=O)[C@H](Cc1ccc(O)cc1)NC(=O)[C@H](CCC(=O)O)NC(=O)[C@@H](NC(=O)[C@@H](NC(=O)[C@H](CC(=O)O)NC(=O)[C@H](CC(N)=O)NC(=O)[C@@H](NC(=O)[C@H](Cc1ccc(O)cc1)NC(=O)[C@@H](NC(=O)CNC(=O)[C@H](CCC(=O)O)NC(=O)CNC(=O)[C@@H](N)Cc1cnc[nH]1)[C@@H](C)O)[C@@H](C)O)C(C)C)[C@@H](C)O)[C@@H](C)CC)C(=O)N[C@@H](CCCCNC(=O)CC[C@H](NC(=O)COC(=O)C(C)(C)CCCOc1cc(C)ccc1C)C(=O)O)C(=O)NCC(=O)N[C@@H](CCCCN)C(=O)O (H-HGEGTYTNDVTEYLEEEAAKEFIEWLIK([γGlu-Glycoloyl(O-gemfibrozoyl)])GK-OH),0.21 nM,,Stable,Active
CC[C@H](C)[C@H](NC(=O)[C@H](CC(C)C)NC(=O)[C@H](Cc1c[nH]c2ccccc12)NC(=O)[C@H](CCC(=O)O)NC(=O)[C@@H](NC(=O)[C@H](Cc1ccccc1)NC(=O)[C@H](CCC(=O)O)NC(=O)[C@H](CCCCN)NC(=O)[C@H](C)NC(=O)[C@H](C)NC(=O)[C@H](CCC(=O)O)NC(=O)[C@H](CCC(=O)O)NC(=O)[C@H](CCC(=O)O)NC(=O)[C@H](CC(C)C)NC(=O)[C@H](Cc1ccc(O)cc1)NC(=O)[C@H](CCC(=O)O)NC(=O)[C@@H](NC(=O)[C@@H](NC(=O)[C@H](CC(=O)O)NC(=O)[C@H](CC(N)=O)NC(=O)[C@@H](NC(=O)[C@H](Cc1ccc(O)cc1)NC(=O)[C@@H](NC(=O)CNC(=O)[C@H](CCC(=O)O)NC(=O)CNC(=O)[C@@H](N)Cc1cnc[nH]1)[C@@H](C)O)[C@@H](C)O)C(C)C)[C@@H](C)O)[C@@H](C)CC)C(=O)N[C@@H](CCCCN)C(=O)NCC(=O)N[C@@H](CCCCNC(=O)CC[C@H](NC(=O)COC(=O)C(C)(C)CCCOc1cc(C)ccc1C)C(=O)O)C(C)=O (H-HGEGTYTNDVTEYLEEEAAKEFIEWLIKG-X4),0.38 nM,,Stable,Active
CC[C@H](C)[C@H](NC(=O)[C@H](CC(C)C)NC(=O)[C@H](Cc1c[nH]c2ccccc12)NC(=O)[C@H](CCC(=O)O)NC(=O)[C@@H](NC(=O)[C@H](Cc1ccccc1)NC(=O)[C@H](CCC(=O)O)NC(=O)[C@H](CCCCNC(=O)CC[C@H](NC(=O)COC(=O)C(C)(C)CCCOc1cc(C)ccc1C)C(=O)O)NC(=O)[C@H](C)NC(=O)[C@H](C)NC(=O)[C@H](CCC(=O)O)NC(=O)[C@H](CCC(=O)O)NC(=O)[C@H](CCC(=O)O)NC(=O)[C@H](CC(C)C)NC(=O)[C@H](Cc1ccc(O)cc1)NC(=O)[C@@H](NC(=O)[C@@H](NC(=O)[C@@H](NC(=O)[C@H](CC(=O)O)NC(=O)[C@H](CC(N)=O)NC(=O)[C@@H](NC(=O)[C@H](Cc1ccc(O)cc1)NC(=O)[C@@H](NC(=O)CNC(=O)[C@H](CCC(=O)O)NC(=O)CNC(=O)[C@@H](N)Cc1cnc[nH]1)[C@@H](C)O)[C@@H](C)O)C(C)C)[C@@H](C)O)C(C)C)[C@@H](C)CC)C(=O)N[C@@H](CCCCN)C(=O)NCC(=O)N[C@@H](CCCCN)C(=O)O (H-HGEGTYTNDVTVYLEEEAAK([γGlu-Glycoloyl(O-gemfibrozoyl)])EFIEWLIKGK-OH),0.093 nM,,Stable,Active

# Further lines, with some results ahead:
EC50 [1],half-life at 1000 ng/ml [2],Stabilty [4],Structure (SMILES),Activity [3]
0.093 nM,18.1 h,Stable,CC[C@H](C)[C@H](NC(=O)[C@H](CC(C)C)NC(=O)[C@H](Cc1c[nH]c2ccccc12)NC(=O)[C@H](CCC(=O)O)NC(=O)[C@@H](NC(=O)[C@H](Cc1ccccc1)NC(=O)[C@H](CCC(=O)O)NC(=O)[C@H](CCCCNC(=O)CC[C@H](NC(=O)CCCCCCCCCCNC(=O)COC(=O)C(C)(C)CCCOc1cc(C)ccc1C)C(=O)O)NC(=O)[C@H](C)NC(=O)[C@H](C)NC(=O)[C@H](CCC(=O)O)NC(=O)[C@H](CCC(=O)O)NC(=O)[C@H](CCC(=O)O)NC(=O)[C@H](CC(C)C)NC(=O)[C@H](Cc1ccc(O)cc1)NC(=O)[C@H](CCC(=O)O)NC(=O)[C@@H](NC(=O)[C@@H](NC(=O)[C@H](CC(=O)O)NC(=O)[C@H](CC(N)=O)NC(=O)[C@@H](NC(=O)[C@H](Cc1ccc(O)cc1)NC(=O)[C@@H](NC(=O)CNC(=O)[C@H](CCC(=O)O)NC(=O)CNC(=O)[C@@H](N)Cc1cnc[nH]1)[C@@H](C)O)[C@@H](C)O)C(C)C)[C@@H](C)O)[C@@H](C)CC)C(=O)N[C@@H](CCCCN)C(=O)NCC(=O)N[C@@H](CCCCN)C(=O)O (H-HGEGTYTNDVTEYLEEEAAK([γGlu-Aun-Glycoloyl(O-gemfibrozoyl)])EFIEWLIKGK-OH),Active
0.21 nM,,Stable,CC[C@H](C)[C@H](NC(=O)[C@H](CC(C)C)NC(=O)[C@H](Cc1c[nH]c2ccccc12)NC(=O)[C@H](CCC(=O)O)NC(=O)[C@@H](NC(=O)[C@H](Cc1ccccc1)NC(=O)[C@H](CCC(=O)O)NC(=O)[C@H](CCCCN)NC(=O)[C@H](C)NC(=O)[C@H](C)NC(=O)[C@H](CCC(=O)O)NC(=O)[C@H](CCC(=O)O)NC(=O)[C@H](CCC(=O)O)NC(=O)[C@H](CC(C)C)NC(=O)[C@H](Cc1ccc(O)cc1)NC(=O)[C@H](CCC(=O)O)NC(=O)[C@@H](NC(=O)[C@@H](NC(=O)[C@H](CC(=O)O)NC(=O)[C@H](CC(N)=O)NC(=O)[C@@H](NC(=O)[C@H](Cc1ccc(O)cc1)NC(=O)[C@@H](NC(=O)CNC(=O)[C@H](CCC(=O)O)NC(=O)CNC(=O)[C@@H](N)Cc1cnc[nH]1)[C@@H](C)O)[C@@H](C)O)C(C)C)[C@@H](C)O)[C@@H](C)CC)C(=O)N[C@@H](CCCCNC(=O)CC[C@H](NC(=O)CCCCCCCCCCNC(=O)COC(=O)C(C)(C)CCCOc1cc(C)ccc1C)C(=O)O)C(=O)NCC(=O)N[C@@H](CCCCN)C(=O)O (H-HGEGTYTNDVTEYLEEEAAKEFIEWLIK([γGlu-Aun-Glycoloyl(O-gemfibrozoyl)])GK-OH),Active
0.38 nM,,Stable,CC[C@H](C)[C@H](NC(=O)[C@H](CC(C)C)NC(=O)[C@H](Cc1c[nH]c2ccccc12)NC(=O)[C@H](CCC(=O)O)NC(=O)[C@@H](NC(=O)[C@H](Cc1ccccc1)NC(=O)[C@H](CCC(=O)O)NC(=O)[C@H](CCCCN)NC(=O)[C@H](C)NC(=O)[C@H](C)NC(=O)[C@H](CCC(=O)O)NC(=O)[C@H](CCC(=O)O)NC(=O)[C@H](CCC(=O)O)NC(=O)[C@H](CC(C)C)NC(=O)[C@H](Cc1ccc(O)cc1)NC(=O)[C@H](CCC(=O)O)NC(=O)[C@@H](NC(=O)[C@@H](NC(=O)[C@H](CC(=O)O)NC(=O)[C@H](CC(N)=O)NC(=O)[C@@H](NC(=O)[C@H](Cc1ccc(O)cc1)NC(=O)[C@@H](NC(=O)CNC(=O)[C@H](CCC(=O)O)NC(=O)CNC(=O)[C@@H](N)Cc1cnc[nH]1)[C@@H](C)O)[C@@H](C)O)C(C)C)[C@@H](C)O)[C@@H](C)CC)C(=O)N[C@@H](CCCCN)C(=O)NCC(=O)N[C@@H](CCCCNC(=O)CC[C@H](NC(=O)CCCCCCCCCCNC(=O)COC(=O)C(C)(C)CCCOc1cc(C)ccc1C)C(=O)O)C(C)=O (H-HGEGTYTNDVTEYLEEEAAKEFIEWLIKG-X5),Active
0.38 nM,,Stable,CC[C@H](C)[C@H](NC(=O)[C@H](CC(C)C)NC(=O)[C@H](Cc1c[nH]c2ccccc12)NC(=O)[C@H](CCC(=O)O)NC(=O)[C@@H](NC(=O)[C@H](Cc1ccccc1)NC(=O)[C@H](CCC(=O)O)NC(=O)[C@H](CCCCN)NC(=O)[C@H](C)NC(=O)[C@H](C)NC(=O)[C@H](CCC(=O)O)NC(=O)[C@H](CCC(=O)O)NC(=O)[C@H](CCC(=O)O)NC(=O)[C@H](CC(C)C)NC(=O)[C@H](Cc1ccc(O)cc1)NC(=O)[C@H](CCC(=O)O)NC(=O)[C@@H](NC(=O)[C@@H](NC(=O)[C@H](CC(=O)O)NC(=O)[C@H](CC(N)=O)NC(=O)[C@@H](NC(=O)[C@H](Cc1ccc(O)cc1)NC(=O)[C@@H](NC(=O)CNC(=O)[C@H](CCC(=O)O)NC(=O)CNC(=O)[C@@H](N)Cc1cnc[nH]1)[C@@H](C)O)[C@@H](C)O)C(C)C)[C@@H](C)O)[C@@H](C)CC)C(=O)N[C@@H](CCCCN)C(=O)NCC(=O)N[C@@H](CCCCNC(=O)CC[C@H](NC(=O)CCCCCNC(=O)COC(=O)C(C)(C)CCCOc1cc(C)ccc1C)C(=O)O)C(=O)O (H-HGEGTYTNDVTEYLEEEAAKEFIEWLIKGK([γGlu-Ahx-Glycoloyl(O-gemfibrozoyl)])-OH),Active
